# Data from paper PMC12582325 (Proceedings of the National Academy of Sciences of the …, 2025).
# Where a SMILES comes first, the peptide text is derived from it.
# Legend:
# [1] = system: Bc.Ste2; type: cell-based, Botrytis cinerea
# [2] = system: Fo.Ste2; type: cell-based, Fusarium oxysporum
# [3] = system: Bb.Ste2; type: cell-based, Beauveria bassiana
# [4] = system: Fo.Ste2; type: cell-based, Fusarium oxysporum; remark: listed apart in the source
# [5] = system: Fg.Ste2; details: SC-AS/Urea compared to SC media with ammonium sulfate alone
# [6] = system: Bb.Ste2; type: cell-based, Beauveria bassiana; remark: listed apart in the source
# [7] = system: Hj.Hpr2; type: cell-based, Hypocrea jecorina
# [8] = system: no_GPCR (negative control lacking a GPCR); type: cell-based, Saccharomyces cerevisiae; details: SC-AS/Urea compared to SC media with ammonium sulfate alone
# [9] = system: Fg.Ste2; type: cell-based, Fusarium graminearum
compound,measurement,setting,value
CC(C)C[C@H](NC(=O)[C@H](CC(C)C)NC(=O)[C@H](CS)NC(=O)[C@@H](N)Cc1c[nH]c2ccccc12)C(=O)N[C@@H](CC(=O)O)C(=O)NCC(=O)N[C@@H](CCC(N)=O)C(=O)N1CCC[C@H]1C(=O)N[C@@H](CS)C(=O)N[C@@H](Cc1c[nH]c2ccccc12)C(=O)O [A6] (H-WCLLDGQPCW-OH; N-terminus and C-terminus assumed),Hillslope,[1],0.5567
same,logEC50,[1],-8.01
same,"Sup.Fig.3A Bc.Ste2 biosensor response, group mean",[1]; 10 μM,1.225
CC(C)C[C@H](NC(=O)[C@H](CS)NC(=O)[C@@H](N)Cc1c[nH]c2ccccc12)C(=O)N[C@@H](Cc1c[nH]c2ccccc12)C(=O)N[C@@H](CCCNC(=N)N)C(=O)NCC(=O)N[C@@H](CCC(N)=O)C(=O)N1CCC[C@H]1C(=O)N[C@@H](CS)C(=O)N[C@@H](Cc1c[nH]c2ccccc12)C(=O)O [A5] (H-WCLWRGQPCW-OH; N-terminus assumed),EC50 fold lower than that of the native Fo alpha pheromone,[2],at least 13 fold
same,logEC50,[2],-8.637
NCCCC[C@H](NC(=O)[C@H](CO)NC(=O)CNC(=O)[C@H](CS)NC(=O)[C@@H](N)Cc1c[nH]c2ccccc12)C(=O)NCC(=O)N[C@@H](CCC(N)=O)C(=O)N1CCC[C@H]1C(=O)N[C@@H](CS)C(=O)N[C@@H](Cc1c[nH]c2ccccc12)C(=O)O [A2] (H-WCGSKGQPCW-OH; N-terminus and C-terminus assumed),"Activation of Bb.Ste2 biosensor, in words",[3],higher EC50 values
same,Hillslope,[3],1.362
same,logEC50,[3],-3.661
NC(N)=O [Urea],Effect on abundance of diploids with Fo.Ste2,[4],did not affect
same,Fold decrease in the abundance of diploids with Fg.Ste2,[5],0.8 fold
same,Increase of diploids containing Bb.Ste2,[6],fourfold
same,Fold increase of diploids containing Hj.Hpr2,[7],20 fold
same,Effect on abundance of diploids with the control strain no_GPCR,[8],did not affect
CC(C)C[C@H](NC(=O)[C@H](CS)NC(=O)[C@@H](N)Cc1c[nH]c2ccccc12)C(=O)N[C@@H](CCCNC(=N)N)C(=O)N[C@H](C(=O)NCC(=O)N[C@@H](CCC(N)=O)C(=O)N1CCC[C@H]1C(=O)N[C@@H](CS)C(=O)N[C@@H](Cc1c[nH]c2ccccc12)C(=O)O)C(C)C [A1] (H-WCLRVGQPCW-OH; N-terminus and C-terminus assumed),logEC50,[3],-9.317
"WCIQSGQPCW [A3, Fg.Ste2 - Agonist candidate from the YPL1 pheromone library]","Sup.Fig.3A Fg.Ste2 biosensor response, group mean","[9]; Control mean 1, mean of n = 4",1.455
same,"Activation of Fg.Ste2 biosensor, in words",[9]; chemically synthesized pheromone,almost no effect
